Data published in patent US8703438B2, “Ligand binding stabilization method for drug target identification” (The Regents of the University of California, priority 2008, dated 2014).

What was measured:
Type in all cases: binding
[1] = biological target: T1, proteins of human Jurkat cell lysate (EF-1alpha isoforms and others) (Homo sapiens, UniProt P00558); assay: DARTS with DB-treated intact Jurkat cells, thermolysin, Coomassie staining and mass spectrometry of protected band; details: DB vs DMSO, mass spectrometry
T1 construct: endogenous in cells; host or cells: Jurkat cells
T1 sequence (P00558 1-417): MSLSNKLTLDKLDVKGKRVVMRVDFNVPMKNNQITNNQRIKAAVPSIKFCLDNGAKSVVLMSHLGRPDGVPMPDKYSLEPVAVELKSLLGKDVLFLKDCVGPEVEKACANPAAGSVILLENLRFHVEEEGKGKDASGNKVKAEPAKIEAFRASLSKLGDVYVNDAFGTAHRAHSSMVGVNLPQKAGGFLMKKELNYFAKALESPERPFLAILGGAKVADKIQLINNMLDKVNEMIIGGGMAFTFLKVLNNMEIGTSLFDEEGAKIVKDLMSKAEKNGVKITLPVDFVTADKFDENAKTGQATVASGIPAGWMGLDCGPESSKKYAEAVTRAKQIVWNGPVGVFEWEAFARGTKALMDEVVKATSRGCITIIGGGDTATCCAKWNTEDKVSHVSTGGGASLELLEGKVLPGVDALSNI
Text: (§1) The experiments above established that DARTS can efficiently test, screen, or verify drug-protein interactions when the protein is available in relatively pure form. For DARTS to be generally useful as a discovery tool, however, applicability to complex protein mixtures (such as cell lysates) would be desirable. […] Given that EF-1 alpha is a highly abundant protein, we first tested whether in the DARTS protocol DB would protect EF-1 alpha from proteolysis and result in a detectable difference.
(§2) For FIGS. 3A and 3C, intact Jurkat cells were treated with DB from 100 pg/mL to 1 μg/mL or DMSO control for 30 min. Cells were lysed (without washing, in these experiments) with M-PER (Pierce) supplemented with protease and phosphatase inhibitors. After centrifugation (14,000 rpm, 15 min), lysates were diluted to the same final volume and protein concentration with M-PER and proteolysed in reaction buffer [50 mM Tris-HCl pH 8.0, 50 mM NaCl, 10 mM CaCl2]. All steps were performed on ice or at 4° C. to help prevent premature protein degradation. Each sample was then quickly warmed to room temperature and proteolysed with 1 μg thermolysin for every 15 μg lysate for 10 min. To stop proteolysis, 0.5 M EDTA (pH 8.0) was added to each sample at a 1:10 ratio, mixed well, and placed on ice.
(§3) Gel bands were cut out and prepared for mass spec analysis with trypsin digestion as described in SI. Peptides were analyzed by LC/MS/MS on a Thermo LTQ-Orbitrap mass spectrometer with an Eksigent LC pump. For quantitative comparison of protein and peptide abundances, MS spectra were analyzed using the differential workflow of Rosetta Elucidator (Rosetta Inpharmatics) (54). Annotation was performed using PeptideTeller and ProteinTeller (see SI).
(§4) The result could indicate lower affinity binding of DB to PGK1, or secondary effects on protein abundance because in this experiment the cells were treated with drug in vivo.
(§5) Proteins were initially identified by searching the spectra against the human International Protein Index database (version 3.46) and the S. cerevisiae Swissprot database (May 2008) using the SEQUEST algorithm (Eng et al. (1994) J Am Soc Mass Spectrom 5: 976-989) integrated into the Bioworks software package. Each peptide met the following criteria: XCorr ≧2 (+1), ≧3 (+2), ≧4 (+3), ≧5 (+4), and DeltaCN>0.1. For quantitative comparison of protein and peptide abundances, MS spectra were analyzed using the differential workflow of the Rosetta Elucidator software system (Rosetta Inpharmatics) (Neubert et al. (2008) J Proteome Res 7: 2270-2279). Annotation was performed using PeptideTeller and ProteinTeller with a minimum probability of 0.99 and predicted error of 0.0. Protein ratio data were generated with a P-value cutoff of 0.01 for all proteins with a peptide number >1. Intensity scaling was performed against the mean of feature signals, with 10% of outliers removed from the baseline dataset. Similar results were obtained in analysis without intensity scaling (FIG. 9A).

[2] = biological target: T2, proteins of human Jurkat cell lysate (EF-1alpha isoforms and others) (Homo sapiens, UniProt P06733); assay: as above; details: DB vs DMSO, mass spectrometry
T2 construct: endogenous in cells; host or cells: Jurkat cells
Text: as §1, §2, §3, §4, §5

[3] = biological target: T3, proteins of human Jurkat cell lysate (EF-1alpha isoforms and others) (Homo sapiens, UniProt P68104); assay: as above; details: DB vs DMSO, mass spectrometry
T3 construct: endogenous in cells; host or cells: Jurkat cells
Text: as §1, §2, §3, §4, §5

[4] = biological target: T4, proteins of human Jurkat cell lysate (EF-1alpha isoforms and others) (Homo sapiens, UniProt Q9P2R7); assay: as above; details: DB vs DMSO, mass spectrometry
T4 construct: endogenous in cells; host or cells: Jurkat cells
T4 sequence (Q9P2R7 53-463): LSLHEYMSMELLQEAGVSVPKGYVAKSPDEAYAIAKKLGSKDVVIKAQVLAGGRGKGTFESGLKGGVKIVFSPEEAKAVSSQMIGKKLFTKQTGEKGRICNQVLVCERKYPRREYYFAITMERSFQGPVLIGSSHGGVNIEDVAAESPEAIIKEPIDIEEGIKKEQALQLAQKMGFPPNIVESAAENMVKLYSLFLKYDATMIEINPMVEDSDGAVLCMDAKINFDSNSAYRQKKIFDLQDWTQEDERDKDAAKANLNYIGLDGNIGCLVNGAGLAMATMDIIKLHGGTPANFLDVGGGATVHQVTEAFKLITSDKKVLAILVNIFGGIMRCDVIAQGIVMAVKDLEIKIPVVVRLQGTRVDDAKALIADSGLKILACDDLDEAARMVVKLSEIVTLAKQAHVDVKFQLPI
Text: as §1, §2, §3, §4, §5

[5] = biological target: T5, proteins of human Jurkat cell lysate (EF-1alpha isoforms and others) (Homo sapiens, UniProt Q05639); assay: as above; details: DB vs DMSO, mass spectrometry
T5 construct: endogenous in cells; host or cells: Jurkat cells
Text: as §1, §2, §3, §4, §5

[6] = biological target: T6, proteins of human Jurkat cell lysate (EF-1alpha isoforms and others) (Homo sapiens, UniProt Q13838); assay: as above; details: DB vs DMSO, mass spectrometry
T6 construct: endogenous in cells; host or cells: Jurkat cells
Text: as §1, §2, §3, §4, §5

[7] = test system: proteins of human Jurkat cell lysate (EF-1alpha isoforms and others); assay: as above; details: DB-treated Jurkat cells, 1 μg/mL, FIG. 3A
Text: as §1, §2, §3, §4, §5

EF-1 alpha = biological target: T7, EF-1 alpha (Homo sapiens, UniProt P68104); assay: DARTS with DB, detection of EF-1 alpha by immunoblotting
T7 construct: endogenous in cells; host or cells: Jurkat cells
Method: FIG. 7 illustrates DARTS with Didemnin B using whole-cell lysates. Lysates from untreated human Jurkat cells were incubated with DMSO control or DB (1 ng/mL, 10 ng/mL, 100 ng/mL, 300 ng/mL, and 1 μg/mL) for 30 min at room temperature. Each sample was then split into two, which underwent thermolysin proteolysis, or mock digestion, respectively, followed by western blot analysis. Protection can be seen starting at 100 ng/mL.
Examination of the protected band and the matching gel region of the control lane by mass spectrometry confirmed that EF-1 alpha was the primary protein present at higher abundance in the DB-treated sample (FIG. 3B). […] The generality of this approach is further supported by experiments using diverse protein-drug pairs ranging from nano- to micro-molar: mTOR-rapamycin, COX-2celecoxib, and SCF E3 ubiquitin ligase-inhibitor (FIG. 8). Furthermore, DARTS is not enzyme specific, and much higher overall digestion efficiency can be achieved using other proteases while retaining protection of the target protein (see Example 2 and FIG. 9).
For FIGS. 3A and 3C, intact Jurkat cells were treated with DB from 100 pg/mL to 1 μg/mL or DMSO control for 30 min. […]
For FIG. 7, human Jurkat cells were lysed in M-PER (Pierce) supplemented with protease and phosphatase inhibitors. Protein concentration was determined by BCA Protein Assay kit (Pierce). […]

T7 sequence (P68104 2-462): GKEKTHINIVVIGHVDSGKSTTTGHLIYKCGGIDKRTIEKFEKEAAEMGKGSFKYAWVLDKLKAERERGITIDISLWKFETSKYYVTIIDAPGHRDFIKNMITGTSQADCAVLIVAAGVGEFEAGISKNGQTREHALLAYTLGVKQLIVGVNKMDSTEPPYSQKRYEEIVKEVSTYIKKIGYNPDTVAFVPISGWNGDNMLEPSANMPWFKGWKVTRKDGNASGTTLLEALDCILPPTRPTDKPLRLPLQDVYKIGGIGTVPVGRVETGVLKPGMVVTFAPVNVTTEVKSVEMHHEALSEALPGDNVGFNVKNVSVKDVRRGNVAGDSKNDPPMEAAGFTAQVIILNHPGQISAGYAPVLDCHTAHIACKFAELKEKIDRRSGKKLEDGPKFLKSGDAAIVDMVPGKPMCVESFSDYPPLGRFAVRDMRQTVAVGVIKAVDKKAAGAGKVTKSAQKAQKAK
T3 sequence (P68104 whole entry, canonical isoform): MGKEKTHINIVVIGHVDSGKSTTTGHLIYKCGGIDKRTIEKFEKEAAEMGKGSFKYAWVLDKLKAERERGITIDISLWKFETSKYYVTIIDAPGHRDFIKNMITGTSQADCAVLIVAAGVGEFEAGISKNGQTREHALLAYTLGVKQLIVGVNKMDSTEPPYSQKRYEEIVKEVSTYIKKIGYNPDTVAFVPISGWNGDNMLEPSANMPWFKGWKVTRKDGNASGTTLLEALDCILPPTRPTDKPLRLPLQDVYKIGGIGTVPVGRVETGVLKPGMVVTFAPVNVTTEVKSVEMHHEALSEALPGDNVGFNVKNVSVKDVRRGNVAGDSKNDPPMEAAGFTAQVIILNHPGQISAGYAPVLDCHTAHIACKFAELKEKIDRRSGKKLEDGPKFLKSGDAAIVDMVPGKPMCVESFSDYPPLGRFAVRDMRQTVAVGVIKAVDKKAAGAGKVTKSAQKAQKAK
T6 sequence (Q13838 whole entry, canonical isoform): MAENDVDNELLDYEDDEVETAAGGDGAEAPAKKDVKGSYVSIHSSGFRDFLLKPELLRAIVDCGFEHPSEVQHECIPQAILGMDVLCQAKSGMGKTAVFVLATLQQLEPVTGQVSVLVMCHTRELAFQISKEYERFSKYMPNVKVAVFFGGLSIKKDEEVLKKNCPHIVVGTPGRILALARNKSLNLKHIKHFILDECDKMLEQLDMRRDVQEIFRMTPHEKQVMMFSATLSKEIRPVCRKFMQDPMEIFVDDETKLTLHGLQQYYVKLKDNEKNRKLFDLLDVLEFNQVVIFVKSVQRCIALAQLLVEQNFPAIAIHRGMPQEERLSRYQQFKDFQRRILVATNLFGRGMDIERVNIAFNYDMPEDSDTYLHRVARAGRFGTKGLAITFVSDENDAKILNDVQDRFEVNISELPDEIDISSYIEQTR
T2 sequence (P06733 whole entry, canonical isoform): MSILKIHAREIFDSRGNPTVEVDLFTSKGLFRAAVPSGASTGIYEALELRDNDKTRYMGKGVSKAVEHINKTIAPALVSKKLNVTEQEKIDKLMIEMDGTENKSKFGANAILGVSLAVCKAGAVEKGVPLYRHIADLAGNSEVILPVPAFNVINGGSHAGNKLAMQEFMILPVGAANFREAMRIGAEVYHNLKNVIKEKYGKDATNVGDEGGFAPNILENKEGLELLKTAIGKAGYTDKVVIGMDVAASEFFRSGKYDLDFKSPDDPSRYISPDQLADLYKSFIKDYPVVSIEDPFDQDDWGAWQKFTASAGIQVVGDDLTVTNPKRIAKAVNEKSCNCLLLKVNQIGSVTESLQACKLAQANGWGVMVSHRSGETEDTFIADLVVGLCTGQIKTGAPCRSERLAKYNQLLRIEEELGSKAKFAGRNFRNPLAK
T5 sequence (Q05639 whole entry, canonical isoform): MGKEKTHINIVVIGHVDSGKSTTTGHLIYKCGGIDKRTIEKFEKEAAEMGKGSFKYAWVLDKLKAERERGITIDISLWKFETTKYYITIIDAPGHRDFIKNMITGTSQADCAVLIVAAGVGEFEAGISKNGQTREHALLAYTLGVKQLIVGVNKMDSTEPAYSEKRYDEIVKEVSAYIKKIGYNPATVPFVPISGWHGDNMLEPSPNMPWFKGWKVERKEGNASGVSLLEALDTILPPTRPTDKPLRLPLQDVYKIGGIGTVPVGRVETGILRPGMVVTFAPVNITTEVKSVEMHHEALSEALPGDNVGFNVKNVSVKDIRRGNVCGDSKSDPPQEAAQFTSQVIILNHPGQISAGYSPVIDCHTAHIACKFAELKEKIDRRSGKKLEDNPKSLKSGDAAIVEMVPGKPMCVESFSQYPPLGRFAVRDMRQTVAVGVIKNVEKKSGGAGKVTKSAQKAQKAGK

CC[C@H](C)[C@H]1NC(=O)[C@@H](NC(=O)[C@@H](CC(C)C)N(C)C(=O)[C@@H]2CCCN2C(=O)C(C)O)[C@@H](C)OC(=O)[C@H](Cc2ccc(OC)cc2)N(C)C(=O)[C@@H]2CCCN2C(=O)[C@H](CC(C)C)NC(=O)[C@@H](C)C(=O)[C@H](C(C)C)OC(=O)C[C@@H]1O (stereo partly drawn) [DB, didemnin B]
enrichment of PGK1 in protected band [1]: 2.4 fold | change of ENO1 in protected band (depleted) [2]: −1.8 fold | enrichment of EEF1A1 in protected band [3]: 18.7 fold | enrichment of SUCLA2 in protected band [4]: 11.7 fold | enrichment of EEF1A2 in protected band [5]: 21.7 fold | enrichment of BAT1 in protected band [6]: 7.5 fold | protected band on Coomassie-stained gel after thermolysin [7]: strong protected band | concentration at which protection starts (EF-1 alpha; Jurkat lysates incubated in vitro 30 min, thermolysin, western blot, FIG. 7): 100 ng/mL | proteolytic protection of EF-1 alpha by immunoblotting (EF-1 alpha; intact cells treated and lysates incubated in vitro): concentration dependent proteolytic protection
